Measurements as given in US7888389B2 (The Regents of the University of Michigan, priority 2002, dated 2011).

Key:
[1] = Open label study of TM for initial treatment of Wilson's disease; format: in vivo, human
Excerpt: The inventors have carried out an open label study of the use of TM for initial treatment of neurologically presenting Wilson's disease patients for the past several years. The inventors have developed both a spectrophotometric and bioassay for the activity of the drug, to evaluate stability, and assure potency of the drug being administered (Brewer et al., 1991a; Brewer et al., 1994b). The drug slowly loses potency when exposed to air.
The inventors have now treated a total of 51 Wilson's disease patients with TM, all of whom presented with neurological or psychiatric disease, in an open label study. These patients were all diagnosed by standard criteria. […] Some of them were treated briefly with other agents prior to this trial. Two patients had psychiatric but not neurological symptoms.
With three exceptions in the earliest part of the study, all patients received a dose of 20 mg tid with meals, or qid with three meals and a snack. Thus, the only difference between a patient receiving 120 mg and 140 mg total dose is that the former was receiving 20 mg tid, or 60 mg, with meals, and the latter was receiving 20 mg qid, or 80 mg with meals plus a snack. The rest of the total daily dose was divided up into three equal doses and given between meals.

[2] = late stages of liver disease; cited from earlier work
[3] = among the seven patients with anemia

Q: With tetrathiomolybdate [TM] as the substance, how does the “cases of reversible anemia” value ([1]; 45 patients, eight weeks TM as initial therapy) read?
A: Its value is 11.1%.

Q: What about the “patients with reversible anemia/bone marrow depression” value ([1]; 51 patients treated) of the same substance?
A: The value was “seven”.

Q: What about the “patients with reduction in platelet count” value [1, 3] of the same substance?
A: The value was “Three”.

Q: And the “patients with reduction in white blood cell count” value [1, 3]?
A: Its value is “four”.

Q: What about the overtreatment ([1]; dose of 180 mg/day or over) of the same substance?
A: The overtreatment was 6 of 37 patients.

Q: What about the overtreatment ([1]; dose of 150 or lower) of the same substance?
A: Its overtreatment is 1 of 13 patients.

Q: What about the “time to close the plasma copper-molybdenum gap (free copper to zero)” value ([1]; first patient) of the same substance?
A: The value was 16 days.

Q: What about the “patients with elevation of transaminase values (AST, ALT)” value ([1]; in vivo) of the same substance?
A: The value was “four”.

Q: And the “quantitative speech exam scores” value ([1]; initial 8 weeks of TM therapy)?
A: Its value is “No patient shows significant (more than 2.0 units) reduction in scores”.

Q: What about the “average fall in hemoglobin” value ([1]; the seven patients with anemia) of the same substance?
A: Its value is 3.4 g %.

Q: And the “patients with significant neurological worsening (change of more than 5 units)” value ([1]; weeks of TM administration)?
A: The value was 4 % of the sample.

Q: What about the “efficacy in LEC rats” value [2] of the same substance?
A: The value was “very effective”.
